Data published in US8012956B2, “Tropane compounds” (Exelixis, Inc., priority 2007, dated 2011).

Target: HSP90 (Homo sapiens, UniProt P07900)
Assay: HSP90 inhibition (HSP90 IC50)
Type: biochemical

Row | SMILES | IC50
1 | COc1cccc(C(=O)N[C@H]2C[C@H]3CC[C@@H](C2)N3c2ccc(C(=O)Nc3ccc(N4CCN(C)CC4)cc3)cn2)c1C [6-[3-endo-({[2-methyl-3-(methyloxy)phenyl]carbonyl}amino)-8-azabicyclo[3.2.1]oct-8-yl]-N-[4-(4-methylpiperazin-1-yl)phenyl]pyridine-3-carboxamide] | < 500 nM
2 | COc1ccc(NC(=O)c2ccc(N3[C@@H]4CC[C@H]3C[C@@H](NC(=O)c3cccc(OC)c3C)C4)nc2)cc1 [6-[3-endo-({[2-methyl-3-(methyloxy)phenyl]carbonyl}amino)-8-azabicyclo[3.2.1]oct-8-yl]-N-[4-(methyloxy)phenyl]pyridine-3-carboxamide] | 500 to 999 nM
3 | COc1cccc(C(=O)NC2CC3CCC(C2)N3c2ccc(C(=O)N[C@H](C)c3ccccc3)cn2)c1C (stereo partly drawn) [6-[3-endo-({[2-methyl-3-(methyloxy)phenyl]carbonyl}amino)-8-azabicyclo[3.2.1]oct-8-yl]-N-[(1R)-1-phenylethyl]pyridine-3-carboxamide] | 2000 to 10000 nM
4 | CC[C@H](C)NC(=O)c1ccc(N2C3CCC2CC(NC(=O)c2cccc(OC)c2C)C3)nc1 (stereo partly drawn) [6-[3-endo-({[2-methyl-3-(methyloxy)phenyl]carbonyl}amino)-8-azabicyclo[3.2.1]oct-8-yl]-N-[(1S)-1-methylpropyl]pyridine-3-carboxamide] | 2000 to 10000 nM
5 | COc1cccc(C(=O)NC2CC3CCC(C2)N3c2ccc(C(=O)N[C@@H](C)c3ccccc3)cn2)c1C (stereo partly drawn) [6-[3-endo-({[2-methyl-3-(methyloxy)phenyl]carbonyl}amino)-8-azabicyclo[3.2.1]oct-8-yl]-N-[(1S)-1-phenylethyl]pyridine-3-carboxamide] | < 500 nM
6 | CC[C@H](NC(=O)c1ccc(N2C3CCC2CC(NC(=O)c2cccc(OC)c2C)C3)nc1)c1ccccc1 (stereo partly drawn) [6-[3-endo-({[2-methyl-3-(methyloxy)phenyl]carbonyl}amino)-8-azabicyclo[3.2.1]oct-8-yl]-N-[(1S)-1-phenylpropyl]pyridine-3-carboxamide] | 500 to 999 nM
7 | COc1cccc(C(=O)N[C@H]2C[C@H]3CC[C@@H](C2)N3c2ccc(C(=O)NCc3c(F)ccc(F)c3F)cn2)c1C [6-[3-endo-({[2-methyl-3-(methyloxy)phenyl]carbonyl}amino)-8-azabicyclo[3.2.1]oct-8-yl]-N-[(2,3,6-trifluorophenyl)methyl]pyridine-3-carboxamide] | 500 to 999 nM
8 | COc1cccc(C(=O)N[C@H]2C[C@H]3CC[C@@H](C2)N3c2ccc(C(=O)NCc3cc(F)c(F)cc3F)cn2)c1C [6-[3-endo-({[2-methyl-3-(methyloxy)phenyl]carbonyl}amino)-8-azabicyclo[3.2.1]oct-8-yl]-N-[(2,4,5-trifluorophenyl)methyl]pyridine-3-carboxamide] | 500 to 999 nM
9 | COc1cccc(C(=O)N[C@H]2C[C@H]3CC[C@@H](C2)N3c2ccc(C(=O)NCc3c(F)cc(F)cc3F)cn2)c1C [6-[3-endo-({[2-methyl-3-(methyloxy)phenyl]carbonyl}amino)-8-azabicyclo[3.2.1]oct-8-yl]-N-[(2,4,6-trifluorophenyl)methyl]pyridine-3-carboxamide] | < 500 nM
10 | COc1cccc(C(=O)N[C@H]2C[C@H]3CC[C@@H](C2)N3c2ccc(C(=O)NCc3ccccc3C)cn2)c1C [6-[3-endo-({[2-methyl-3-(methyloxy)phenyl]carbonyl}amino)-8-azabicyclo[3.2.1]oct-8-yl]-N-[(2-methylphenyl)methyl]pyridine-3-carboxamide] | < 500 nM
11 | COc1cccc(C(=O)N[C@H]2C[C@H]3CC[C@@H](C2)N3c2ccc(C(=O)NCc3cccc(C)c3)cn2)c1C [6-[3-endo-({[2-methyl-3-(methyloxy)phenyl]carbonyl}amino)-8-azabicyclo[3.2.1]oct-8-yl]-N-[(3-methylphenyl)methyl]pyridine-3-carboxamide] | 2000 to 10000 nM
12 | COc1cccc(C(=O)NC2CC3CCC(C2)N3c2ccc(C(=O)N[C@@H]3CCN(Cc4ccccc4)C3)cn2)c1C (stereo partly drawn) [6-[3-endo-({[2-methyl-3-(methyloxy)phenyl]carbonyl}amino)-8-azabicyclo[3.2.1]oct-8-yl]-N-[(3R)-1-(phenylmethyl)pyrrolidin-3-yl]pyridine-3-carboxamide] | < 500 nM
13 | COc1cccc(C(=O)NC2CC3CCC(C2)N3c2ccc(C(=O)N[C@@H]3CCN(C)C3)cn2)c1C (stereo partly drawn) [6-[3-endo-({[2-methyl-3-(methyloxy)phenyl]carbonyl}amino)-8-azabicyclo[3.2.1]oct-8-yl]-N-[(3R)-1-methylpyrrolidin-3-yl]pyridine-3-carboxamide] | < 500 nM
14 | COc1cccc(C(=O)NC2CC3CCC(C2)N3c2ccc(C(=O)N[C@@H]3CCNC3)cn2)c1C (stereo partly drawn) [6-[3-endo-({[2-methyl-3-(methyloxy)phenyl]carbonyl}amino)-8-azabicyclo[3.2.1]oct-8-yl]-N-[(3R)-pyrrolidin-3-yl]pyridine-3-carboxamide] | 500 to 999 nM
15 | COc1cccc(C(=O)NC2CC3CCC(C2)N3c2ccc(C(=O)N[C@H]3CCN(Cc4ccccc4)C3)cn2)c1C (stereo partly drawn) [6-[3-endo-({[2-methyl-3-(methyloxy)phenyl]carbonyl}amino)-8-azabicyclo[3.2.1]oct-8-yl]-N-[(3S)-1-(phenylmethyl)pyrrolidin-3-yl]pyridine-3-carboxamide] | 500 to 999 nM
16 | COc1cccc(C(=O)NC2CC3CCC(C2)N3c2ccc(C(=O)N[C@H]3CCN(C)C3)cn2)c1C (stereo partly drawn) [6-[3-endo-({[2-methyl-3-(methyloxy)phenyl]carbonyl}amino)-8-azabicyclo[3.2.1]oct-8-yl]-N-[(3S)-1-methylpyrrolidin-3-yl]pyridine-3-carboxamide] | 1000 to 2000 nM
17 | COc1cccc(C(=O)N[C@H]2C[C@H]3CC[C@@H](C2)N3c2ccc(C(=O)NCc3ccc(N4CCOCC4)cc3)cn2)c1C [6-[3-endo-({[2-methyl-3-(methyloxy)phenyl]carbonyl}amino)-8-azabicyclo[3.2.1]oct-8-yl]-N-[(4-morpholin-4-ylphenyl)methyl]pyridine-3-carboxamide] | < 500 nM
18 | COc1cccc(C(=O)N[C@H]2C[C@H]3CC[C@@H](C2)N3c2ccc(C(=O)NCc3ccc(N4CCNCC4)cc3)cn2)c1C [6-[3-endo-({[2-methyl-3-(methyloxy)phenyl]carbonyl}amino)-8-azabicyclo[3.2.1]oct-8-yl]-N-[(4-piperazin-1-ylphenyl)methyl]pyridine-3-carboxamide] | < 500 nM
19 | COc1cccc(C(=O)N[C@H]2C[C@H]3CC[C@@H](C2)N3c2ccc(C(=O)NCc3ccc(N4CCCC4)cc3)cn2)c1C [6-[3-endo-({[2-methyl-3-(methyloxy)phenyl]carbonyl}amino)-8-azabicyclo[3.2.1]oct-8-yl]-N-[(4-pyrrolidin-1-ylphenyl)methyl]pyridine-3-carboxamide] | 500 to 999 nM
20 | COc1cccc(C(=O)N[C@H]2C[C@H]3CC[C@@H](C2)N3c2ccc(C(=O)NCc3cnc(C)cn3)cn2)c1C [6-[3-endo-({[2-methyl-3-(methyloxy)phenyl]carbonyl}amino)-8-azabicyclo[3.2.1]oct-8-yl]-N-[(5-methylpyrazin-2-yl)methyl]pyridine-3-carboxamide] | < 500 nM
21 | COc1cccc(C(=O)NC2CC3CCC(C2)N3c2ccc(C(=O)NC3CCCNC3)cn2)c1C (stereo not drawn) [6-[3-endo-({[2-methyl-3-(methyloxy)phenyl]carbonyl}amino)-8-azabicyclo[3.2.1]oct-8-yl]-N-piperidin-3-ylpyridine-3-carboxamide] | 500 to 999 nM
22 | COc1cccc(C(=O)N[C@H]2C[C@H]3CC[C@@H](C2)N3c2ccc(C(=O)NC3CCNCC3)cn2)c1C [6-[3-endo-({[2-methyl-3-(methyloxy)phenyl]carbonyl}amino)-8-azabicyclo[3.2.1]oct-8-yl]-N-piperidin-4-ylpyridine-3-carboxamide] | < 500 nM
23 | CCCNC(=O)c1ccc(N2[C@@H]3CC[C@H]2C[C@@H](NC(=O)c2cccc(OC)c2C)C3)nc1 [6-[3-endo-({[2-methyl-3-(methyloxy)phenyl]carbonyl}amino)-8-azabicyclo[3.2.1]oct-8-yl]-N-propylpyridine-3-carboxamide] | 1000 to 2000 nM
24 | COc1ccc([C@@H](C)NC(=O)c2ccc(N3C4CCC3CC(NC(=O)c3cccc(OC)c3C)C4)nc2)cc1 (stereo partly drawn) [6-[3-endo-({[2-methyl-3-(methyloxy)phenyl]carbonyl}amino)-8-azabicyclo[3.2.1]oct-8-yl]-N-{(1R)-1-[4-(methyloxy)phenyl]ethyl}pyridine-3-carboxamide] | 2000 to 10000 nM
25 | COc1cccc([C@H](C)NC(=O)c2ccc(N3C4CCC3CC(NC(=O)c3cccc(OC)c3C)C4)nc2)c1 (stereo partly drawn) [6-[3-endo-({[2-methyl-3-(methyloxy)phenyl]carbonyl}amino)-8-azabicyclo[3.2.1]oct-8-yl]-N-{(1S)-1-[3-(methyloxy)phenyl]ethyl}pyridine-3-carboxamide] | < 500 nM
26 | COc1cccc(C(=O)NC2CC3CCC(C2)N3c2ccc(C(=O)N[C@@H](C)c3ccc(N4CCN(C)CC4)cc3)cn2)c1C (stereo partly drawn) [6-[3-endo-({[2-methyl-3-(methyloxy)phenyl]carbonyl}amino)-8-azabicyclo[3.2.1]oct-8-yl]-N-{(1S)-1-[4-(4-methylpiperazin-1-yl)phenyl]ethyl}pyridine-3-carboxamide] | < 500 nM
27 | COc1cccc(C(=O)NC2CC3CCC(C2)N3c2ccc(C(=O)N[C@H]3CCC[C@@H]3OCc3ccccc3)cn2)c1C (stereo partly drawn) [6-[3-endo-({[2-methyl-3-(methyloxy)phenyl]carbonyl}amino)-8-azabicyclo[3.2.1]oct-8-yl]-N-{(1S,2S)-2-[(phenylmethyl)oxy]cyclopentyl}pyridine-3-carboxamide] | 2000 to 10000 nM
28 | COc1cccc(C(=O)N[C@H]2C[C@H]3CC[C@@H](C2)N3c2ccc(C(=O)NCc3ccccc3N3CCN(C)CC3)cn2)c1C [6-[3-endo-({[2-methyl-3-(methyloxy)phenyl]carbonyl}amino)-8-azabicyclo[3.2.1]oct-8-yl]-N-{[2-(4-methylpiperazin-1-yl)phenyl]methyl}pyridine-3-carboxamide] | 1000 to 2000 nM
29 | COc1ccccc1CNC(=O)c1ccc(N2[C@@H]3CC[C@H]2C[C@@H](NC(=O)c2cccc(OC)c2C)C3)nc1 [6-[3-endo-({[2-methyl-3-(methyloxy)phenyl]carbonyl}amino)-8-azabicyclo[3.2.1]oct-8-yl]-N-{[2-(methyloxy)phenyl]methyl}pyridine-3-carboxamide] | 1000 to 2000 nM
